Test results as given in patent US20240208968A1, “ALPHA V BETA 6 AND ALPHA V BETA 1 INTEGRIN INHIBITORS AND USES THEREOF” (DiCE Molecules SV, Inc., priority 2021, published 2024).

Columns and labels:
αvβ1 = αvβ1 (Homo sapiens, UniProt P05556+P06756); experiment: Solid Phase Integrin αvβ1 Assay; format: binding
Summary of the method: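 Compound competes for αvβ1 binding to immobilized TGFb1-LAP (1 µg/mL coat) in Mn2+ (1 mM MnCl2), 2% BSA binding buffer over 90 min at room temperature, integrin added at 0.2 µg/mL. Read-out: streptavidin-HRP/TMB; IC50 from Levenberg-Marquardt four-parameter fit.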

αvβ6 = αvβ6 (Homo sapiens, UniProt P06756+P18564); experiment: Solid Phase Integrin αvβ6 Assay; format: binding
Sequence of αvβ6 (P06756 31-992 limits assumed): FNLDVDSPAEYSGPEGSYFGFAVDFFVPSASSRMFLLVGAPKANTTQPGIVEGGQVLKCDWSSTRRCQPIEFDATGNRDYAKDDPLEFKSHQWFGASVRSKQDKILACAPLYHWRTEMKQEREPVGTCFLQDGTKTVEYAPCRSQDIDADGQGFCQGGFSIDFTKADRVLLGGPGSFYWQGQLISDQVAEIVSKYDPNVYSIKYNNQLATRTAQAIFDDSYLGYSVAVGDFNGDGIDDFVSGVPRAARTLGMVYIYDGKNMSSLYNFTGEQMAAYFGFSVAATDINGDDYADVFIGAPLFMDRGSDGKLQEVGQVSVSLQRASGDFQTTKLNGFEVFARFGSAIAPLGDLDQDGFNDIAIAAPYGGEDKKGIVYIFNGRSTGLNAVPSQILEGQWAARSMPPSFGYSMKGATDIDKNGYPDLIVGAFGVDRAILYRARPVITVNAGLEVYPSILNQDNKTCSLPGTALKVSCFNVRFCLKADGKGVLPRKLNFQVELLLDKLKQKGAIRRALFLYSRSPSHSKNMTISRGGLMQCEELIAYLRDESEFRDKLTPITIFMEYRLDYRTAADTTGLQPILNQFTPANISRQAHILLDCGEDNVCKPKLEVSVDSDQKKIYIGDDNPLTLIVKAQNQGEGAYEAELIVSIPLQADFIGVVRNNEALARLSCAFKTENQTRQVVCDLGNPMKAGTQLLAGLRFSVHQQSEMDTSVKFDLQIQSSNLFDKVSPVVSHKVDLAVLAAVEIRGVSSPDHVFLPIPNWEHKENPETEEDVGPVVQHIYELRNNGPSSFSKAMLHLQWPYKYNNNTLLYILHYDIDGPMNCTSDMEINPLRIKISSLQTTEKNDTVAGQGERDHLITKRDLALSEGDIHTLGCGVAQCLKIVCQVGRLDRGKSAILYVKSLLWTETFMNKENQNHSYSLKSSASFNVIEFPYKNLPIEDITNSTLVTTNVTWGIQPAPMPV
Sequence of αvβ6 (P18564 22-707 limits assumed): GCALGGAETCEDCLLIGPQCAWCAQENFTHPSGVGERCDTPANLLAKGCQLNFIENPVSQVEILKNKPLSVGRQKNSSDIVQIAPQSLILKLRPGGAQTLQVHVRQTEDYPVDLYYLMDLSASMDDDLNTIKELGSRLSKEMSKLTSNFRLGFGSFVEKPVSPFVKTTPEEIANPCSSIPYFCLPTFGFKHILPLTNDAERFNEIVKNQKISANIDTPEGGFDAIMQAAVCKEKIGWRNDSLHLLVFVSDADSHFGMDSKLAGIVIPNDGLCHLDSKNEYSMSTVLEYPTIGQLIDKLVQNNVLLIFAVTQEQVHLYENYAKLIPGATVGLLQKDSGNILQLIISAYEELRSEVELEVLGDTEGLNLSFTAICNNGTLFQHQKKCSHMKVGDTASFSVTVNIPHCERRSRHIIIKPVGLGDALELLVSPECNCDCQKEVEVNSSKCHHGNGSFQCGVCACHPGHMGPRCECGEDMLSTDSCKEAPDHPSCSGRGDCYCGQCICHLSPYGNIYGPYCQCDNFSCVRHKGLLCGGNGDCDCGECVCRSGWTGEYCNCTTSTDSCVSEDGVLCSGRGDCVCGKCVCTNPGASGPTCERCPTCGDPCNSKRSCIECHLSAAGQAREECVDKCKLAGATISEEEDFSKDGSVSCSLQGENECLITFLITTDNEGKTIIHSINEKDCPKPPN
Summary of the method: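 Inhibition of αvβ6 binding to immobilized recombinant TGFb1-LAP (1 μg/mL coating), 1 h at room temperature with 1 mM MnCl2 in BSA/TBST buffer, integrin diluted to 0.2 μg/mL before addition. Streptavidin-HRP/TMB read-out; four-parameter logistic fitting gave IC50.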

Sequence of αvβ1 (P06756 31-992 limits assumed): as the sequence (P06756 31-992 limits assumed) above
Sequence of αvβ1 (P05556 21-728 limits assumed): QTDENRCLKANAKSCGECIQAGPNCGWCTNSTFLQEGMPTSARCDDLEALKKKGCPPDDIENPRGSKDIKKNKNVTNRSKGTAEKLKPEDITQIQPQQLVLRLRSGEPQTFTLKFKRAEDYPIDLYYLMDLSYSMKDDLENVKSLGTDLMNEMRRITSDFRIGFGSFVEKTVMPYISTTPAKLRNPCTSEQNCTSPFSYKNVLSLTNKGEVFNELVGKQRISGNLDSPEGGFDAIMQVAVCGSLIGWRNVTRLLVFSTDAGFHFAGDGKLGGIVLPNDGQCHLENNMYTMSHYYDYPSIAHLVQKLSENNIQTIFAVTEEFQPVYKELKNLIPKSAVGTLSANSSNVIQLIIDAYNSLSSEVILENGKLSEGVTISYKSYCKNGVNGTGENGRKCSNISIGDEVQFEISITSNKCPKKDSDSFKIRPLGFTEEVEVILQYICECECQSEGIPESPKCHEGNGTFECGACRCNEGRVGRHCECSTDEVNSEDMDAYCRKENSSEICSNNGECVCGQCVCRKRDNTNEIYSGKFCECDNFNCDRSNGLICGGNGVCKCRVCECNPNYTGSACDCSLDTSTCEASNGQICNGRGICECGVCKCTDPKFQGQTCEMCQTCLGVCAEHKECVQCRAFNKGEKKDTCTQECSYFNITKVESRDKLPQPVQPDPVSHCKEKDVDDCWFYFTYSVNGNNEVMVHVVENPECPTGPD

Compound	IC50 (αvβ1) [nM]	IC50 (αvβ6) [nM]
CC1(C)CCCN(c2cccc([C@@H](CNC(=O)[C@@H]3CCCN(CCCc4ccc5c(n4)NCCC5)C3)C(=O)O)c2)C1 [Compound 599]	< 100	< 100
CC1(C)CCN(c2cccc([C@@H](CNC(=O)[C@@H]3CCCN(CCCc4ccc5c(n4)NCCC5)C3)C(=O)O)c2)CC1 [Compound 601]	< 100	< 100
C[C@H]1CN(c2cccc([C@H](CNC(=O)[C@@H]3CCCN(CCCc4ccc5c(n4)NCCC5)C3)C(=O)O)c2)C[C@H](C)O1 [Compound 603]	< 100	< 100
C[C@@H]1CN(c2cccc([C@@H](CNC(=O)[C@@H]3CCCN(CCCc4ccc5c(n4)NCCC5)C3)C(=O)O)c2)C[C@H](C)O1 [Compound 604]	< 100	< 100
C[C@@H]1CN(c2cccc([C@H](CNC(=O)[C@@H]3CCCN(CCCc4ccc5c(n4)NCCC5)C3)C(=O)O)c2)C[C@@H](C)O1 [Compound 605]	< 100	< 100
CNC(=O)[C@@H]1CN(C(=O)CCCc2ccc3c(c2)NCCC3)C[C@H]1NC(=O)CC(CC(=O)O)c1ccccc1 (some centres unmarked) [Compound 606]	< 100	100 to 1000
CNC(=O)[C@H]1C[C@H](C(=O)N[C@@H](CC(=O)O)c2ccccc2)CN(CCCc2ccc3c(n2)NCCC3)C1 [Compound 607]	< 100	< 100
O=C(O)[C@@H](c1ccccc1)[C@@H](O)CO[C@@H]1CCCN(CCCc2ccc3c(n2)NCCC3)C1 [Compound 608]	> 1000	> 1000
O=C(O)[C@@H](c1ccccc1)[C@H](O)CO[C@@H]1CCCN(CCCc2ccc3c(n2)NCCC3)C1 [Compound 609]	> 1000	> 1000
O=C(O)C(c1ccccc1)C(O)CO[C@@H]1CCCN(CCCc2ccc3c(n2)NCCC3)C1 (some centres unmarked) [Compound 610]	> 1000	> 1000
O=C(O)[C@H](c1ccccc1)[C@H](O)CO[C@@H]1CCCN(CCCc2ccc3c(n2)NCCC3)C1 [Compound 611]	> 1000	> 1000
O=C(O)[C@H](c1ccccc1)[C@@H](O)CO[C@@H]1CCCN(CCCc2ccc3c(n2)NCCC3)C1 [Compound 612]	> 1000	> 1000
O=C(O)C[C@H](NC(=O)[C@@H]1CCCN(CCCc2ccc3c(n2)NCCC3)C1)c1ccc2c(c1)OCC2 [Compound 613]	< 100	< 100
O=C(O)C[C@H](NC(=O)[C@@H]1CCCN(CCCc2ccc3c(n2)NCCC3)C1)c1cccc2c1OCO2 [Compound 614]	< 100	< 100
O=C(O)C[C@H](NC(=O)[C@@H]1CCCN(CCCc2ccc3c(n2)NCCC3)C1)c1cccc2c1CCO2 [Compound 615]	< 100	< 100
O=C(O)C[C@H](NC(=O)[C@@H]1CCCN(CCCc2ccc3c(n2)NCCC3)C1)c1cnn(-c2ccccc2)c1 [Compound 616]	< 100	< 100
C[C@@H]1CN(c2cccc([C@H](CC(=O)O)NC(=O)[C@@H]3CCCN(CCCc4ccc5c(n4)NCCC5)C3)c2)C[C@H](C)O1 [Compound 617]	< 100	< 100
C[C@@H]1CN(c2cccc([C@H](CC(=O)O)NC(=O)[C@@H]3CCCN(CCCc4ccc5c(n4)NCCC5)C3)c2)C[C@@H](C)O1 [Compound 618]	< 100	< 100
O=C(NC[C@H](C(=O)O)c1cccc2cn([C@H]3CCC(F)(F)C3)nc12)[C@@H]1CCCN(CCCc2ccc3c(n2)NCCC3)C1 [Compound 619]	< 100	< 100
O=C(NC[C@H](C(=O)O)c1cncc(-c2ccccc2)c1)[C@@H]1CCCN(CCCc2ccc3c(n2)NCCC3)C1 [Compound 620]	< 100	< 100
O=C(NC[C@H](C(=O)O)c1cccc(-c2ccccc2C(F)(F)F)c1)[C@@H]1CCCN(CCCc2ccc3c(n2)NCCC3)C1 [Compound 621]	< 100	< 100
O=C(NC[C@H](C(=O)O)c1ccc(F)c(-c2ccccc2)c1F)[C@@H]1CCCN(CCCc2ccc3c(n2)NCCC3)C1 [Compound 622]	100 to 1000	100 to 1000
O=C(NC[C@H](C(=O)O)c1cccc2cn([C@@H]3CCC(F)(F)C3)nc12)[C@@H]1CCCN(CCCc2ccc3c(n2)NCCC3)C1 [Compound 623]	< 100	< 100
O=C(NC[C@@H](C(=O)O)c1cccc2cn([C@H]3CCC(F)(F)C3)nc12)[C@@H]1CCCN(CCCc2ccc3c(n2)NCCC3)C1 [Compound 624]	100 to 1000	> 1000
O=C(NC[C@@H](C(=O)O)c1cccc(-c2ccccc2C(F)(F)F)c1)[C@@H]1CCCN(CCCc2ccc3c(n2)NCCC3)C1 [Compound 625]	> 1000	100 to 1000
O=C(NC[C@@H](C(=O)O)c1ccc(F)c(-c2ccccc2)c1F)[C@@H]1CCCN(CCCc2ccc3c(n2)NCCC3)C1 [Compound 626]	< 100	< 100

Compound	IC50 (αvβ1) [nM]	IC50 (αvβ6) [nM]
O=C(NC[C@@H](C(=O)O)c1cncc(-c2ccccc2)c1)[C@@H]1CCCN(CCCc2ccc3c(n2)NCCC3)C1 [Compound 627]	< 100	< 100
O=C(O)C(CNC(=O)[C@@H]1CCCN(CCCc2ccc3c(n2)NCCC3)C1)c1cc(-c2ccccc2)ccn1 (some centres unmarked) [Compound 628]	< 100	< 100
O=C(NC[C@H](C(=O)O)c1cc(F)cc(-c2cccc(F)c2)c1)[C@@H]1CCCN(CCCc2ccc3c(n2)NCCC3)C1 [Compound 629]	> 1000	100 to 1000
C[C@@H]1C[C@@H](C(=O)NC[C@H](C(=O)O)c2cccc(-c3ccccc3)c2)CN(CCCc2ccc3c(n2)NCCC3)C1 [Compound 630]	> 1000	> 1000
C[C@H]1C[C@@H](C(=O)NC[C@H](C(=O)O)c2cccc(-c3ccccc3)c2)CN(CCCc2ccc3c(n2)NCCC3)C1 [Compound 631]	< 100	< 100
C[C@@H]1C[C@@H](C(=O)NC[C@H](C(=O)O)c2ccc3ccccc3c2)CN(CCCc2ccc3c(n2)NCCC3)C1 [Compound 632]	100 to 1000	100 to 1000
C[C@H]1C[C@@H](C(=O)NC[C@H](C(=O)O)c2ccc3ccccc3c2)CN(CCCc2ccc3c(n2)NCCC3)C1 [Compound 633]	< 100	< 100
C[C@@H]1C[C@H](C(=O)NC[C@H](C(=O)O)c2ccc3ccccc3c2)CN(CCCc2ccc3c(n2)NCCC3)C1 [Compound 634]	100 to 1000	100 to 1000
C[C@H]1C[C@H](C(=O)NC[C@H](C(=O)O)c2ccc3ccccc3c2)CN(CCCc2ccc3c(n2)NCCC3)C1 [Compound 635]	100 to 1000	100 to 1000
O=C(NC[C@@H](C(=O)O)c1cc(F)cc(-c2cccc(F)c2)c1)[C@@H]1CCCN(CCCc2ccc3c(n2)NCCC3)C1 [Compound 636]	< 100	< 100
C[C@@H]1C[C@H](C(=O)NC[C@H](C(=O)O)c2cccc(-c3ccccc3)c2)CN(CCCc2ccc3c(n2)NCCC3)C1 [Compound 637]	100 to 1000	< 100
C[C@H]1C[C@H](C(=O)NC[C@H](C(=O)O)c2cccc(-c3ccccc3)c2)CN(CCCc2ccc3c(n2)NCCC3)C1 [Compound 638]	< 100	< 100
C[C@@H]1C[C@@H](C(=O)NC[C@@H](C(=O)O)c2ccc3ccccc3c2)CN(CCCc2ccc3c(n2)NCCC3)C1 [Compound 639]	100 to 1000	100 to 1000
C[C@@H]1C[C@@H](C(=O)NC[C@@H](C(=O)O)c2cccc(-c3ccccc3)c2)CN(CCCc2ccc3c(n2)NCCC3)C1 [Compound 640]	100 to 1000	100 to 1000
C[C@@H]1C[C@H](C(=O)NC[C@@H](C(=O)O)c2ccc3ccccc3c2)CN(CCCc2ccc3c(n2)NCCC3)C1 [Compound 641]	100 to 1000	100 to 1000
C[C@@H]1C[C@H](C(=O)NC[C@@H](C(=O)O)c2cccc(-c3ccccc3)c2)CN(CCCc2ccc3c(n2)NCCC3)C1 [Compound 642]	> 1000	> 1000
C[C@H]1C[C@H](C(=O)NC[C@@H](C(=O)O)c2ccc3ccccc3c2)CN(CCCc2ccc3c(n2)NCCC3)C1 [Compound 643]	< 100	< 100
C[C@H]1C[C@H](C(=O)NC[C@@H](C(=O)O)c2cccc(-c3ccccc3)c2)CN(CCCc2ccc3c(n2)NCCC3)C1 [Compound 644]	100 to 1000	100 to 1000
C[C@H]1C[C@@H](C(=O)NC[C@@H](C(=O)O)c2ccc3ccccc3c2)CN(CCCc2ccc3c(n2)NCCC3)C1 [Compound 645]	100 to 1000	> 1000
C[C@H]1C[C@@H](C(=O)NC[C@@H](C(=O)O)c2cccc(-c3ccccc3)c2)CN(CCCc2ccc3c(n2)NCCC3)C1 [Compound 646]	> 1000	100 to 1000
CC1(C)CN(c2cc([C@@H](CO[C@@H]3CCCN(CCCc4ccc5c(n4)NCCC5)C3)CC(=O)O)ccc2Cl)CCO1 [Compound 647]	< 100	< 100
CC1(C)CN(c2cc([C@H](CO[C@@H]3CCCN(CCCc4ccc5c(n4)NCCC5)C3)CC(=O)O)ccc2Cl)CCO1 [Compound 648]	100 to 1000	100 to 1000
O=C(O)C[C@@H](CO[C@@H]1CCCN(CCCc2ccc3c(n2)NCCC3)C1)c1cncc(N2CCC(F)(F)CC2)c1 [Compound 649]	< 100	< 100
CC1(C)CN(c2cc(Cl)cc(C(CO[C@@H]3CCCN(CCCc4ccc5c(n4)NCCC5)C3)CC(=O)O)c2)CCO1 (some centres unmarked) [Compound 650]	< 100	< 100
CC1(C)CN(c2cccc([C@H](CO[C@@H]3CCCN(CCCc4ccc5c(n4)NCCC5)C3)CC(=O)O)c2)CCC1(F)F [Compound 651]	< 100	< 100
CC1(C)CN(c2cccc([C@@H](CO[C@@H]3CCCN(CCCc4ccc5c(n4)NCCC5)C3)CC(=O)O)c2)CCC1(F)F [Compound 652]	< 100	< 100
